Like-named read-outs stand apart in the source and are kept apart here.
Columns and labels:
Format in all cases: in vivo, rat (Lewis male)
[1] = tested on: rat pleura (carrageenan-induced cell accumulation and edema formation); test: modification of the standard carrageenan pleurisy assay (anti-inflammatory activity); settings: po, p.o. gavage to fasted rats 0.5 hr prior to intrapleural 50 μg carrageenan, exudate after 4 hr
Experimental: The rats used in these experiments were Lewis males, weighing 160-180 g, assigned to groups consisting of 5 animals. Test compounds were given to fasted rats by oral gavage 0.5 hr prior to intrapleural injection of 50 μg carrageenan. After 4 hr, the pleural exudate was collected and the edema volume and cell number were determined. ED50 values were estimated by linear regression analysis, and represent the doses at which a given drug produced 50% inhibition of carrageenan-induced cell accumulation and edema formation within the rat pleura.

[2] = tested on: rat hind limb (trypsin-induced hyperalgesia); test: modification of the trypsin-induced rat hind limb hyperalgesic assay (mild analgesia); settings: po, 1 h, p.o. gavage to fasted rats 0.5 hours prior to subplantar 250 μg trypsin, evaluated one hour later, 4 seconds maximum latency, read-out: p.o. ED50 (mild analgesia, 50% inhibition of latency response)
Experimental: The rats used in these studies were Lewis male, weighing 160-180 g. and assigned to groups consisting of 5-6 animals. Test compounds were given to fasted rats by oral gavage 0.5 hours prior to the subplantar injection of 250 μg trypsin in one hind limb. One hour later the rats were evaluated for hyperalgesia using a F-shaped mechanical force clamp on the injected hind limb metatarsal area. Latency (seconds) to the algesic response (vocalisation or flight) was determined, with 4 seconds being the maximum latency allowed. ED50 values were estimated by linear regression analysis and represent the dose at which a given drug extended the latency response to produce 50% inhibition using the formula:
(4 sec.-Control Latency)-(4 sec.-Test Latency)/4 sec.--Control

[3] = tested on: phalanges of one hind limb (algesic response); test: phalanges algesic assay (strong analgesia); settings: p.o. gavage to fasted rats, mechanical force clamp one hour later, 3 seconds maximum; for ED50: Rattus norvegicus, po, 1 h, read-out: p.o. ED50 (strong analgesia, 50% inhibition of latency response)
Experimental: The rats used in these studies were Lewis male weighing 160-180 g and assigned to groups of 5-6 animals. The phalanges algesic assay is an algesic test (no hyperalgesia). Test compounds were given to fasted rats by oral gavage. One hour later an F-shaped mechanical force clamp was applied to the phalanges of one hind limb which initiated an algesic response (vocalisation or flight). Latency (seconds) to the algesic response was determined with 3 seconds maximum allowed time. ED50 values were estimated by linear regression analysis and represent the dose at which a given compound extended the latency response to produce 50% inhibition using the formula:
(3 sec.-Control Latency)-(3 sec.-Test Latency)/3 sec.-Control

[4] = read-out: p.o. ED50, Cells (50% inhibition of carrageenan-induced cell accumulation)
[5] = read-out: p.o. ED50, Edema (50% inhibition of edema formation)

| SMILES | ED50 [1, 4] [mg/kg] | ED50 [1, 5] [mg/kg] | ED50 [2] [mg/kg] | ED50 [3] [mg/kg] | p.o. ED50 (strong analgesia, 50% inhibition of latency response) [3] |
| --- | --- | --- | --- | --- | --- |
| CNC(=O)/C=C1\CCc2c(Cl)cc(F)cc21 [Example 1, (E)-2-(4-Chloro-6-fluoro-1-indanylidene)-N-Methylacetamide] | 8 | 5 | 2 | 60 |  |
| NC(=O)/C=C1\CCc2c(F)cc(Cl)cc21 [Example 6, (E)-2-(6-Chloro-4-Fluoro-1-indanylidene)acetamide] | > 25 | > 25 | > 10 | > 45 |  |
| NC(=O)/C=C1\CCc2c(Cl)cc(Cl)cc21 [Example 3, (E)-2-(4,6-Dichloro-1-indanylidene)acetamide] | 25 | 20 | 4 | > 45 |  |
| NC(=O)/C=C1\CCc2c(Br)cc(F)cc21 [Example 7, (E)-2-(4-Bromo-6-Fluoro-1-indanylidene)acetamide] | > 20 | > 20 |  | > 45 |  |
| NC(=O)/C=C1\CCc2c(Cl)cc(F)cc21 [Example 2, (E)-2-(4-Chloro-6-fluoro-1-indanylidene)acetamide] | 11 | 11 | 4 | 30 |  |
| Cc1cc(Cl)c2c(c1)/C(=C/C(N)=O)CC2 [Example 8, (E)-2-(4-Chloro-6-methyl-1-indanylidene)acetamide] | > 25 | > 25 |  |  | Inactive at 45 |

From patent US5708033A, “Amide derivatives and their therapeutic use” (Glaxo Wellcome Inc., priority 1994, dated 1998)
